Experimental findings from patent publication US20250313572A1, “MACROCYCLIC MCL-1 INHIBITORS AND METHODS OF USE” (AbbVie Inc., priority 2017, published 2025) are described below.

Like-named read-outs stand apart in the source and are kept apart here.

The target in one assay is GST-MCL-1 (Homo sapiens, UniProt Q07820). The assay can be described thus: TR-FRET MCL-1 binding assay (competition with probe F-Bak). The protocol: Tb-anti-GST antibody was purchased from Invitrogen (Catalog No. PV4216).
For the assay, an acoustic dispenser was used to prepare dilution series from 10 mM test compounds in 100% DMSO and directly transfer 160 nL into low volume 384-well assay plates. 8 μL of a protein/probe/antibody mix was then added to each well resulting in final concentrations listed below: • Test compound: 11 three-fold dilutions beginning at 25 μM
The samples were then mixed on a shaker for 1 minute and incubated for an additional 2 hours at room temperature. For each assay plate, a probe/antibody and protein/antibody/probe mixture were included as a negative and a positive control, respectively. Fluorescence was measured on the Envision (Perkin Elmer) using a 340/35 nm excitation filter and 520/525 (F-Bak) and 495/510 nm (Tb-labeled anti-his antibody) emission filters. […] The TR-FRET assay can be performed in the presence of varying concentrations of human serum (HS) or fetal bovine serum (FBS). Compounds were tested both without HS and in the presence of 10% HS.
In general terms: Time-resolved FRET reads energy transfer from a long-lived donor to a nearby acceptor.

Assay [1] deals with NCI-H929 human multiple myeloma tumor cell line. The assay can be described thus: NCI-H929 cell viability assay (CellTiter-Glo, 24 hours). Particulars: Homo sapiens, NCI-H929, 24 h, read-out: H929 Viability IC50 (μM, 10% FBS), 10% FBS, 24 hours of compound treatment. The assay is classed as cell-based. A general note: In ATP-based viability assays light output follows the ATP content of the culture.
Procedure: (§1) Each concentration was tested in duplicate at least 3 independent times. A luminescent signal proportional to the number of viable cells following 24 hours of compound treatment was determined using the CellTiter-Glo® Luminescent Cell Viability Assay according to the manufacturer's recommendations (Promega Corp., Madison, WI). The plates were read in a Perkin Elmer Envision using a Luminescence protocol. To generate dose response curves the data is normalized to percent viability by setting the averages of the staurosporine (10 μM) and DMSO only control wells to 0% and 100% viability respectively.

The test system of assay [2] is AMO-1 human multiple myeloma tumor cell line. The assay can be described thus: AMO-1 cell viability assay (CellTiter-Glo, 24 hours). The assay is classed as cell-based. As to conditions: Homo sapiens, AMO1, 24 h, read-out: AMO-1 Viability IC50 (μM, 10% FBS), 10% FBS, 24 hours of compound treatment.
Procedure: as §1
[3] abbreviates: MCL-1 Binding Ki (nM, 10% HS), in the presence of 10% HS (human serum).
The mark [4] stands for this setting: without HS, read-out: MCL-1 Binding Ki.

Sequence of GST-MCL-1 (Q07820 whole entry): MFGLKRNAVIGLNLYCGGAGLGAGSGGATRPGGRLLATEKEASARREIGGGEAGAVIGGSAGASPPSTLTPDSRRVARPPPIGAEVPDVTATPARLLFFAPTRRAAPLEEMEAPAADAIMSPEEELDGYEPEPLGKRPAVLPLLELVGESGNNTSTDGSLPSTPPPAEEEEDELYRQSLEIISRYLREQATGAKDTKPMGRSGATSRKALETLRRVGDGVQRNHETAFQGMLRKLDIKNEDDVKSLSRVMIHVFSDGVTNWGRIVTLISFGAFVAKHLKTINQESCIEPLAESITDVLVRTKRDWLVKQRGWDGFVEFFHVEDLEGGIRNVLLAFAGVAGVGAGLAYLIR

The term Ki denotes a measure of affinity in units of concentration, obtained from inhibition or displacement. In general, IC50 refers to the concentration that gives 50% inhibition. Consider `COCCOCCOCCOCc1ccc(-c2nccc(COc3ccc4cc3C[C@H](C(=O)O)Oc3ncnc5sc(-c6ccc(F)cc6)c(c35)-c3c(C)c(Cl)c(c(Cl)c3C)O[C@H](CN3CCN(C)CC3)CO4)n2)c(OCCOCCOCCOC)c1` [Example 153, (7R,16R)-19,23-dichloro-1-(4-fluorophenyl)-10-({2-[2-{2-[2-(2-methoxyethoxy)ethoxy]ethoxy}-4-(2,5,8,11-tetraoxadodecan-1-yl)phenyl]pyrimidin-4-yl}methoxy)-20,22-dimethyl-16-[(4-methylpiperazin-1-yl)methyl]-7,8,15,16-tetrahydro-18,21-etheno-13,9-(metheno)-6,14,17-trioxa-2-thia-3,5-diazacyclononadeca[1,2,3-cd]indene-7-carboxylic Acid], for which the inhibition constant Ki at GST-MCL-1 (setting [3]) was determined as 0.023 nM; at GST-MCL-1 (setting [4]), 0.001 nM. Moreover, the IC50 worked out at 0.00688 µM in assay [1] and 0.00728 µM in assay [2].
`COCCOCCO[C@]1(c2nccc(COc3ccc4cc3C[C@H](C(=O)O)Oc3ncnc5sc(-c6ccc(F)cc6)c(c35)-c3c(C)c(Cl)c(c(Cl)c3C)O[C@H](CN3CCN(C)CC3)CO4)n2)CC[C@H](OCC2COCCO2)CC1` (stereo partly drawn) [Example 122, (7R,16R)-19,23-dichloro-10-[(2-{(1s,4s)-4-[(1,4-dioxan-2-yl)methoxy]-1-[2-(2-methoxyethoxy)ethoxy]cyclohexyl}pyrimidin-4-yl)methoxy]-1-(4-fluorophenyl)-20,22-dimethyl-16-[(4-methylpiperazin-1-yl)methyl]-7,8,15,16-tetrahydro-18,21-etheno-9,13-(metheno)-6,14,17-trioxa-2-thia-3,5-diazacyclononadeca[1,2,3-cd]indene-7-carboxylic Acid]: the Ki is 0.698 nM at GST-MCL-1 (setting [3]) and 0.024 nM at GST-MCL-1 (setting [4]). Further, the concentration for half-maximal inhibition (IC50) in assay [1] worked out at 0.00277 µM; in assay [2], 0.00107 µM.
For `COCCOCCOCCOc1cccc(COc2ccc3cc2C[C@H](C(=O)O)Oc2ncnc4sc(-c5ccc(F)cc5)c(c24)-c2c(C)c(Cl)c(c(Cl)c2C)O[C@H](CN2CCN(C)CC2)CO3)n1` [Example 99, (7R,16R)-19,23-dichloro-1-(4-fluorophenyl)-10-[(6-{2-[2-(2-methoxyethoxy)ethoxy]ethoxy}pyridin-2-yl)methoxy]-20,22-dimethyl-16-[(4-methylpiperazin-1-yl)methyl]-7,8,15,16-tetrahydro-18,21-etheno-9,13-(metheno)-6,14,17-trioxa-2-thia-3,5-diazacyclononadeca[1,2,3-cd]indene-7-carboxylic Acid] the same measures were 6.17 nM, 0.543 nM, 0.00269 µM and 0.000655 µM.
For `Cc1c(Cl)c2c(Cl)c(C)c1-c1c(-c3ccc(F)cc3)sc3ncnc(c13)O[C@@H](C(=O)O)Cc1cc(ccc1OCc1ccnc(-c3ccc(OCC4COCCOCCOCCOCCOCCO4)cc3)n1)OC[C@@H](CN1CCN(C)CC1)O2` (stereo partly drawn) [Example 123, (7R,16R)-19,23-dichloro-1-(4-fluorophenyl)-10-[(2-{4-[(1,4,7,10,13,16-hexaoxacyclooctadecan-2-yl)methoxy]phenyl}pyrimidin-4-yl)methoxy]-20,22-dimethyl-16-[(4-methylpiperazin-1-yl)methyl]-7,8,15,16-tetrahydro-18,21-etheno-13,9-(metheno)-6,14,17-trioxa-2-thia-3,5-diazacyclononadeca[1,2,3-cd]indene-7-carboxylic Acid] the same measures were 0.051 nM, 0.003 nM, 0.00467 µM and 0.00128 µM.
For `Cc1c(Cl)c2c(Cl)c(C)c1-c1c(-c3ccc(F)cc3)sc3ncnc(c13)O[C@@H](C(=O)O)Cc1cc(ccc1OCc1ccnc([C@]3(O)CCCC[C@H]3O)n1)OC[C@@H](CN1CCN(C)CC1)O2` [Example 39, (7R,16R)-19,23-dichloro-10-({2-[(1R,2R)-1,2-dihydroxycyclohexyl]pyrimidin-4-yl}methoxy)-1-(4-fluorophenyl)-20,22-dimethyl-16-[(4-methylpiperazin-1-yl)methyl]-7,8,15,16-tetrahydro-18,21-etheno-9,13-(metheno)-6,14,17-trioxa-2-thia-3,5-diazacyclononadeca[1,2,3-cd]indene-7-carboxylic Acid] the same measures were 0.193 nM, 0.042 nM, 0.00353 µM and 0.00119 µM.
`Cc1c(Cl)c2c(Cl)c(C)c1-c1c(-c3ccc(F)cc3)sc3ncnc(c13)O[C@@H](C(=O)O)Cc1cc(ccc1OCc1ccnc(-c3ccc(CCC(=O)O)cc3)n1)OC[C@@H](CN1CCN(C)CC1)O2` [Example 20, (7R,16R)-10-({2-[4-(2-carboxyethyl)phenyl]pyrimidin-4-yl}methoxy)-19,23-dichloro-1-(4-fluorophenyl)-20,22-dimethyl-16-[(4-methylpiperazin-1-yl)methyl]-7,8,15,16-tetrahydro-18,21-etheno-13,9-(metheno)-6,14,17-trioxa-2-thia-3,5-diazacyclononadeca[1,2,3-cd]indene-7-carboxylic Acid]: the Ki at GST-MCL-1 (setting [3]) was 0.165 nM; on GST-MCL-1 (setting [4]), 0.007 nM. The IC50 in assay [1] turned out to be 0.00804 µM; in assay [2], 0.00425 µM.
In the case of `Cc1c(Cl)c2c(Cl)c(C)c1-c1c(-c3ccc(F)cc3)sc3ncnc(c13)O[C@@H](C(=O)O)Cc1cc(ccc1OCc1ccnc(-c3ccc(OCCN4CC5CCC(C4)O5)cc3)n1)OC[C@@H](CN1CCN(C)CC1)O2` [Example 170, (7R,16R)-19,23-dichloro-1-(4-fluorophenyl)-20,22-dimethyl-16-[(4-methylpiperazin-1-yl)methyl]-10-[(2-{4-[2-(8-oxa-3-azabicyclo[3.2.1]octan-3-yl)ethoxy]phenyl}pyrimidin-4-yl)methoxy]-7,8,15,16-tetrahydro-18,21-etheno-13,9-(metheno)-6,14,17-trioxa-2-thia-3,5-diazacyclononadeca[1,2,3-cd]indene-7-carboxylic Acid], the figures for the Ki at GST-MCL-1 (setting [3]) and at GST-MCL-1 (setting [4]) were 1.85 nM and 0.042 nM, respectively. Moreover, the IC50 in assay [1] was found to be 0.00278 µM; in assay [2], 0.000646 µM.
`Cc1c(Cl)c2c(Cl)c(C)c1-c1c(-c3ccc(F)cc3)sc3ncnc(c13)O[C@@H](C(=O)O)Cc1cc(ccc1OCc1ccnc(N3CC4C(C3)C4(F)F)n1)OC[C@@H](CN1CCN(C)CC1)O2` (stereo partly drawn) [Example 33, (7R,16R)-19,23-dichloro-10-{[2-(6,6-difluoro-3-azabicyclo[3.1.0]hexan-3-yl)pyrimidin-4-yl]methoxy}-1-(4-fluorophenyl)-20,22-dimethyl-16-[(4-methylpiperazin-1-yl)methyl]-7,8,15,16-tetrahydro-18,21-etheno-13,9-(metheno)-6,14,17-trioxa-2-thia-3,5-diazacyclononadeca[1,2,3-cd]indene-7-carboxylic Acid]: the Ki is 2.23 nM on GST-MCL-1 (setting [3]) and 0.088 nM on GST-MCL-1 (setting [4]). Also, the IC50 in assay [1] is 0.00123 µM; in assay [2], 0.000282 µM.
